According to US20200179331A1, “Peptide-Artesunate Conjugates as Targeted Anti-Cancer Agents” (priority 2017, published 2020):
Where two headings read alike, the source gives them in different places. Residues, ends and D or L forms follow the SMILES beside them. *: point of attachment. X1 = C[C@H]1[C@H](OC(=O)CCC(=O)*)O[C@@H]2O[C@@]3(C)CC[C@H]4[C@H](C)CC[C@@H]1[C@@]24OO3

Experiments:
[1] = Dichlorofluorescein assay (reactive oxygen species formation with Fe2+); conditions: for reactive oxygen species formation, DCF fluorescence: 20 μM, Fe2+ 5-25 μM, 10 μM DCFH-DA, 30 min
Experimental: The assay was carried out following a reported procedure either in presence of hydrogen peroxide, Artesunate with and without Fe2+, and ART-HER2 conjugate with and without Fe2+[43]. In this assay non-fluorescent DCFH-DA (2′, 7′-Dichlorofluorescin diacetate treated with methanol and NaOH, as described in reference 43) is converted to a fluorescent derivative, known as dichlorofluorescein (DCF), in presence of an oxidizing agent (e.g. reactive oxygen species). By quantifying the concentration of fluorescent DCF, the concentration of oxidizing agent can be determined.
Formation of free radical species from the reaction of Artesunate with […] was additionally measured by dichlorofluorescein assays. Oxidation of 2′, 7′-Dichlorofluorescin diacetate (DCFH-DA) by reactive oxygen species generates dichlorofluorescein, which is fluorescent (˜520 nm).

[2] = reference [50]; cell line not given; read-out: IC50, anticancer ability of commonly used anticancer drugs; cited from earlier work
[3] = MTT assay, Caco-2 cells (HER2-positive)
Experimental: (§1) CCD-18 cells were maintained in Dulbecco's minimal essential medium (DMEM, ATCC) supplemented with 10% fetal bovine serum (FBS, ATCC), 100 U/ml penicillin G, and 100 μg/ml streptomycin at 37° C. in a humid atmosphere of 5% CO2 atmosphere. Caco-2 cells were maintained in Dulbecco's minimal essential medium (DMEM, ATCC) supplemented with 20% fetal bovine serum (FBS,ATCC), 100 U/ml penicillin G, and 100 μg/ml streptomycin at 37° C. in a humid atmosphere of 5% CO2 atmosphere; culture medium was replaced with a fresh medium every 2-3 days. All experiments were performed with actively growing cells in logarithmic growth phase.
(§2) The assay was carried out following a reported procedure. In brief, approximately 1,000 to 5,000 cells were plated per well in 96-well plate. The plates were incubated at 37° C. for 48 or 72 hours in a humidified, 5% CO2 atmosphere. Cells were incubated either with Artesunate or with ART-HER2 conjugate at various concentrations. To measure mitochondrial activity, a metric for cell viability, 15 μL of [3-{4, 5-dimethylthiazol-2-yl)-2, 5-diphenyltetrazolium bromide (MTT) was added to each well and incubated at 37° C. for 4 hours in a humidified, 5% CO2 atmosphere. After incubation, 100 μl of the solubilization solution/stop mix was added to each well. The blue formazan product formed by reduction of MTT by mitochondrial dehydrogenase in viable cells was then measured by absorbance at 570 nm.
(§3) The cytotoxicity of Artesunate was then investigated with two human colon cell lines, a normal colon cell line CCD-18 and a cancerous colon cell line Caco-2, using the well-established MTT assay. […] Dose-dependent assays were performed in 96-well format and IC50 values were determined by plotting the cell viability against Artesunate concentration (FIG. 11 and FIG. 12).

HCT116 cells = test: Sulforhodamine B (SRB) colorimetric assay, HCT116 proliferation; type: cell-based; conditions: Homo sapiens, HCT-116, 96-well format, read-out: IC50, inhibition of the proliferation of HCT116 cells
Experimental: Mouse B16-F10 melanoma cancer cells and human HCT116 colon cancer cells were grown in culture respectively in DMEM medium or McCoy's 5 A medium supplemented with 10% fetal bovine serum and 5% antibiotic in a 5% CO2 atmosphere at 37° C. Cultures were divided 1:2 every 48 h to an approximate cell density of 1.2 million cells per ml and used for experiments after 24 hours of growth in culture.

Caco-2 cells = test: MTT assay, Caco-2 cells (HER2-positive)
Experimental: as §1, §2, §3

[4] = MTT assay, CCD-18 cells (HER2-negative normal colon); conditions: human, CCD-18 cells (normal colon, HER2-negative)
Experimental: as §1
The assay was carried out following a reported procedure. In brief, approximately 1,000 to 5,000 cells were plated per well in 96-well plate. The plates were incubated at 37° C. for 48 or 72 hours in a humidified, 5% CO2 atmosphere. […] The blue formazan product formed by reduction of MTT by mitochondrial dehydrogenase in viable cells was then measured by absorbance at 570 nm.
as §3

[5] = Deoxyribose degradation assay (free radical formation with Fe2+); conditions: 200 μM, Fe2+ 5-25 μM, 10 minutes
Experimental: This assay quantifies the formation of hydroxyl radicals or peroxyl radicals. The assay was carried out following a reported procedure. Briefly, 500 μL reaction volumes containing 10 mM 2-deoxyribose, 100 μM ascorbic acid, and various concentrations of Fe2+ were prepared. Degradation of 2-deoxyribose was initiated either by addition of 200 μM of hydrogen peroxide or 200 μM of Artesunate. The reaction was allowed to run for 10 minutes and then stopped by the addition of 500 μL of 10% (w/v) trichloroacetic acid (TCA) followed by 0.5 mL 1% 2-thiobarbituric acid (TBA). After heating at 80° C. for 15 minutes, the absorbance at 532 nm was measured.
To measure the concentration of free radical species generated by Artesunate reacting with Fe^2+, 2-deoxyribose degradation assays were formed (FIG. 6). Degradation of 2-deoxyribose by action of hydrogen peroxide is shown as a positive control and 2-deoxyribose alone is shown as a negative control (FIG. 6).

OO [H2O2, hydrogen peroxide]
reactive oxygen species formation, DCF fluorescence [1]: Fe^2+-dependent activation of dichlorofluorescein fluorescence

O=c1[nH]cc(F)c(=O)[nH]1 [5-FU, 5-fluorouracil]
IC50 [2]: ~15 µM

CC(C)C[C@H](NC(=O)[C@H](CO)NC(=O)[C@H](Cc1ccc(O)cc1)NC(=O)[C@H](CS)NC(=O)[C@H](CS)NC(=O)[C@H](CCCCN)NC(=O)CNC(=O)[C@H](CO)NC(=O)CNC(=O)CCC(=O)O[C@@H]1O[C@@H]2O[C@@]3(C)CC[C@H]4[C@H](C)CC[C@@H]([C@H]1C)[C@@]24OO3)C(N)=O [ART-HER2 conjugate] (X1-GSGKCCYSL-NH2)
IC50 [3]: ~15 µM | free radical species formation in presence of Fe2+ (in words) ([1]; 2-deoxyribose degradation and dichlorofluorescein assays, increasing Fe2+): increases in presence of increasing levels of Fe^+

N.N.O=C([O-])C1(C(=O)[O-])CCC1.[Pt+2] [carboplatin]
IC50 [2]: ~12 µM

C[C@H]1[C@H](OC(=O)CCC(=O)O)O[C@@H]2O[C@@]3(C)CC[C@H]4[C@H](C)CC[C@@H]1[C@@]24OO3 [Artesunate]
IC50 (HCT116 cells): ~0.63 µM | fold higher toxicity against Caco-2 cells compared to CCD-18 cells (Caco-2 cells; Caco-2): ~5.7 fold | IC50 (Caco-2 cells; Homo sapiens, Caco-2, read-out: IC50, cytotoxicity against Caco-2 cells): ~0.97 µM | IC50 [4]: ~5.6 µM | reactive oxygen species formation, DCF fluorescence [1]: Fe^2+-dependent activation of dichlorofluorescein fluorescence | free radical generation, 2-deoxyribose degradation (absorbance 532 nm) [5]: reacts with Fe^2+ to generate free radical species that are sufficient to degrade 2-deoxyribose
